Measurements from article PMC10391911, “Differential effects of two phosphodiesterase 4 inhibitors against lipopolysaccharide-induced neuroinflammation in mice” (BMC Neuroscience, 2023).
Like-named read-outs stand apart in the source and are kept apart here. Each block holds one molecule with its values, some of them ahead of it.

Columns and labels:
[1] = test system: TNF-α production in LPS-induced BV-2 cells; assay: TNF-α production in LPS-induced BV-2 cells (ELISA); format: cell-based, murine; conditions: for Effect on TNF-α levels: up to 10 µM; for IC50: Mus musculus, BV-2, read-out: IC50 against TNF-α
Experimental: BV-2 cells were seeded at a density of 5 × 10^5 cells/mL in 96-well plates. […] Finally, 1 µg/mL LPS was added to the cell culture medium for 24 h to induce inflammation.

[2] = Bidirectional MDR1-MDCK monolayer permeability; format: in vitro ADME, canine; conditions: dog, MDCK-MDR1; for Papp at 3 µM: both directions, read-out: Apparent permeability coefficients; for Papp A→B at 3 µM / Papp A→B at 10 µM / Papp A→B at 30 µM: read-out: Papp Apical → Basolateral; for Papp B→A at 3 µM / Papp B→A at 10 µM / Papp B→A at 30 µM: read-out: Papp Basolateral → Apical; for Papp A→B: read-out: Papp in the apical-to-basolateral direction
Experimental: MDR1-MDCK cells were seeded at a density of 2 × 10^5 cells/well on the apical side of 24-transwell plates with a pore size of 0.4 μm (Corning Costar, Cambridge, MA, USA). Each basolateral chamber was filled with 0.6 mL medium, and each apical side with 0.2 mL medium containing cells. The plates seeded with cells were incubated for 3 days. The culture medium was replaced on both the apical and basolateral sides 2 days after seeding. Before the experiment, the transepithelial electrical resistance was measured using an epithelial voltohmmeter (Millicell ERS-2; Millipore), where 300 ohms or greater was considered to indicate the formation of a cell monolayer with tight junctions. The cells were rinsed twice with pre-warmed Hank’s balanced salt solution (HBSS) containing 10 mM of HEPES and were incubated in a CO2 incubator for 30 min. […] After equilibration, the solutions containing the test or reference compounds were added to either the apical side (0.2 mL) or basolateral side (0.6 mL) of the wells, and the plates were incubated in a shaking incubator (37℃, 200 rpm). Samples were collected every 30 min. To test for apical-to-basolateral flow, 110 µL sample was removed from each basolateral chamber; to test for basolateral-to-apical flow, 110 µL sample was taken from each apical chamber; then, each well was replenished with 110 µL fresh HBSS. To each sample, 50 µL internal standard (5 ng/mL disopyramide) in water was added. Samples were prepared for analysis using solid-phase extraction, and the sample concentrations were analyzed via LC-MS/MS. The permeability of the tested compounds was evaluated by calculating the apparent permeability coefficient (Papp, cm/s) and the efflux ratio (ER). The Papp was calculated as follows: [drawing 1] where dQ/dt is the initial permeability rate of the compound across the cells (ng/s), A is the surface area of the cell monolayer (cm^2), and C0 is the initial concentration of the donor side (ng/mL). From the apical-to-basolateral and basolateral-to-apical Papp values, the ER was calculated as follows: [drawing 2]

[3] = In vitro protein-binding assay using equilibrium dialysis, plasma; format: in vitro ADME, mouse
Experimental: A rapid equilibrium dialysis device with inserts (cat no. #90,112, Thermo Fisher) was used for the protein-binding assay. […] The samples were incubated for 4 h in a shaking incubator (37℃, 300 rpm). After incubation, 50 µL buffer from the white chamber was added to 50 µL fresh mouse plasma or brain homogenate, and 50 µL dosing solution from the red chamber was added to 50 µL fresh buffer to adjust for matrix effects. To each sample, 200 µL ice-cold acetonitrile with internal standard was added. The samples were centrifuged at 4,000 rpm for 20 min and the supernatants were collected for LC-MS/MS analysis. The unbound fraction of drug (Fu) in plasma and brain tissue was calculated as follows based on previous studies: [drawing 3] [drawing 4]
where Cprotein-free compartment and Cprotein-containing compartment, D, and dh are the concentrations of drug in the buffer chamber and drug solution chamber, dilution factor, and diluted brain homogenate, respectively.
The values were calculated using the measured diluted free fractions and the respective dilution factor.

[4] = test system: PDE4As, PDE4Bs and PDE4Ds; conditions: against PDE4As; cited from earlier work
PDE4Cs = conditions: against PDE4Cs; cited from earlier work
PDE4B = conditions: quoted in discussion without reference, cf. b4; read-out: PDE4B inhibitory concentration; cited from earlier work
[5] = mice and rats; cited from earlier work
memory = conditions: rodents; cited from earlier work
APP/PS1 mouse model = conditions: 0.1, 0.2, and 0.4 mg/kg intragastrically for 3 weeks, APP/PS1 mice; cited from earlier work
[6] = test system: TNF-α, IL-1β, and IL-6 levels and apoptotic neurons in the brain; conditions: 3 mg/kg subcutaneous, following subarachnoid hemorrhage; cited from earlier work
BV-2 cells = format: cell-based, murine; conditions: 24 h exposure, tested up to 100 µM
Experimental: Cell viability was assessed using the WST-8 assay with Cyto X reagent (LPS Solution, Daejeon, Korea). BV-2 microglial cells were seeded at a density of 5 × 10^5 cells/mL in 96-well plates. […] Finally, Cyto X solution was loaded in each well and incubated for 20 min.

PDE4D7 = test system: PDE4D7; parameters: method as in PMID 33363155; conditions: against PDE4D7; cited from earlier work
PDE4D3 = test system: PDE4D3; parameters: method as in PMID 33363155; conditions: against PDE4D3; cited from earlier work
brain cAMP levels = test system: brain cAMP levels; parameters: method as in PMID 28772081, PMID 33363155; conditions: cited from earlier work
[7] = 1 h pretreatment, LPS 1 µg/mL 24 h

IC50 [1, 7]: 12.2 nM
IC50 ([1]; converted from nM): 4.9 ng/mL
fraction unbound at 4 h, 5 µM ([3]; mouse, plasma): 0.0126 ± 0.0058
Structure (SMILES): O=C(Nc1c(Cl)cncc1Cl)c1ccc(OC(F)F)c(OCC2CC2)c1 [roflumilast]
Effect on TNF-α levels [1, 7]: dose-dependent decrease
Effect on memory in object-location task and spatial Y-maze (memory): enhanced memory
Performance in Morris water maze, novel object recognition, and passive avoidance tasks (APP/PS1 mouse model): restored performance
TNF-α, IL-1β, and IL-6 levels and number of apoptotic neurons in the brain [6]: decreased

Structure (SMILES): O=C(O)Cc1ccc(Cc2cc(-c3cccc(Cl)c3)nc(C(F)(F)F)c2)cc1 [zatolmilast]
Effect on TNF-α levels [1, 7]: did not have this effect
IC50 (PDE4D3): 7.4 nM
Effect on brain cAMP levels (brain cAMP levels): increases brain cAMP levels
